≈ marks a conversion by molar mass, not a printed value. Calls of active or inactive are those of the source. The rule behind the calls is not given here.
Assays:
Bacillus subtilis [1] = assay: Antibacterial activity against Bacillus subtilis ATCC 6633 assessed as reduction in bacterial growth incubated for 24 hrs by Mueller-Hinton broth based assay; assay type: functional
Enterococcus faecalis [2] = assay: Antibacterial activity against Enterococcus faecalis ATCC 29212 assessed as reduction in bacterial growth incubated for 24 hrs by Mueller-Hinton broth based assay; assay type: functional
Staphylococcus aureus [3] = assay: Antimicrobial activity against Staphylococcus aureus ATCC 29213 assessed as reduction in bacterial growth incubated for 24 hrs by Mueller-Hinton broth based assay; assay type: functional
[4] = system: Staphylococcus epidermidis; assay: Antibacterial activity against Staphylococcus epidermidis ATCC 14990 assessed as inhibition of bacterial growth incubated for 24 hrs by Mueller-Hinton broth based assay; assay type: functional
Staphylococcus aureus [5] = assay: Antibacterial activity against methicillin resistant-Staphylococcus aureus […] assessed as inhibition of bacterial growth incubated for 18 hrs by CLSI based microdilution method; assay type: functional
Cell membrane [6] = assay: Induction of cell membrane disruption in Staphylococcus aureus ATCC 29213 assessed as appearance of ruptured cell at 8 microg/ml incubated for 2 hrs by scanning electron microscopic analysis; assay type: subcellular; conditions: dose 8.0 µg/ml
Cell membrane [7] = assay: Induction of cell membrane disruption in Staphylococcus aureus ATCC 29213 assessed as increase in fluorescence intensity at 8 microg/ml incubated for 2 hrs by scanning electron microscopic analysis; assay type: subcellular; conditions: dose 8.0 µg/ml
Cell membrane [8] = assay: Disruption of membrane integrity in Staphylococcus aureus ATCC 29213 assessed as increase in red fluorescence at 8 microg/ml incubated for 2 hrs by EthD-III dye based fluorescence microscopic analysis; assay type: subcellular; conditions: dose 8.0 µg/ml
Cell membrane [9] = assay: Induction of cell membrane disruption in Staphylococcus aureus ATCC 29213 assessed as appearance of wrinkled cell at 8 microg/ml incubated for 2 hrs by scanning electron microscopic analysis; assay type: subcellular; conditions: dose 8.0 µg/ml
Staphylococcus aureus [10] = assay: Bactericidal activity against Staphylococcus aureus ATCC 29213 assessed as reduction in bacterial growth at 8 times MIC measured at 8 hrs by time-kill assay; assay type: functional
Enterococcus faecalis [11] = assay: Potency index, ratio of chloramphenicol MIC to test compound MIC for antibacterial activity against Enterococcus faecalis ATCC 29212 assessed as reduction in bacterial growth incubated for 24 hrs by Mueller-Hinton broth based assay; assay type: functional
Cell membrane [12] = assay: Induction of cell membrane disruption in Staphylococcus aureus ATCC 29213 assessed as appearance of round cell at 8 microg/ml incubated for 2 hrs by scanning electron microscopic analysis; assay type: subcellular; conditions: dose 8.0 µg/ml
[13] = system: Staphylococcus epidermidis; assay: Potency index, ratio of chloramphenicol MIC to test compound MIC for antibacterial activity against Staphylococcus epidermidis ATCC 14990 assessed as inhibition of bacterial growth incubated for 24 hrs by Mueller-Hinton broth based assay; assay type: functional
Staphylococcus aureus [14] = assay: Bactericidal activity against Staphylococcus aureus ATCC 29213 assessed as reduction in bacterial growth at 8 microg/ml measured immediately by time-kill assay; assay type: functional, organism-based; conditions: dose 8.0 µg/ml
Staphylococcus aureus [15] = assay: Potency index, ratio of chloramphenicol MIC to test compound MIC for antimicrobial activity against Staphylococcus aureus ATCC 29213 assessed as reduction in bacterial growth incubated for 24 hrs by Mueller-Hinton broth based assay; assay type: functional
Staphylococcus aureus [16] = assay: Antibacterial activity against Staphylococcus aureus ATCC 29213 assessed as inhibition of bacterial growth incubated for 18 hrs by CLSI based microdilution method; assay type: functional
Cell membrane [17] = assay: Disruption of membrane integrity in Staphylococcus aureus ATCC 29213 assessed as increase in green fluorescence at 8 microg/ml incubated for 2 hrs by nuc-green dye based fluorescence microscopic analysis; assay type: subcellular; conditions: dose 8.0 µg/ml
Cell membrane [18] = assay: Induction of cell membrane disruption in Staphylococcus aureus ATCC 29213 assessed as appearance of uneven cell at 8 microg/ml incubated for 2 hrs by scanning electron microscopic analysis; assay type: subcellular; conditions: dose 8.0 µg/ml
Bacillus subtilis [19] = assay: Potency index, ratio of chloramphenicol MIC to test compound MIC for antibacterial activity against Bacillus subtilis ATCC 6633 assessed as reduction in bacterial growth incubated for 24 hrs by Mueller-Hinton broth based assay; assay type: functional
Staphylococcus aureus [20] = assay: Bactericidal activity against Staphylococcus aureus ATCC 29213 assessed as inhibition of bacterial growth measured at 8 hrs by time-kill assay; assay type: functional, organism-based
Staphylococcus aureus [21] = assay: Bactericidal activity against Staphylococcus aureus ATCC 29213 assessed as reduction in bacterial growth at 0.5 to 8 times MIC measured at 24 hrs by time-kill assay; assay type: functional, organism-based
Staphylococcus aureus [22] = assay: Bactericidal activity against Staphylococcus aureus ATCC 29213 assessed as reduction in bacterial growth at 8 microg/ml measured at 2 hrs by time-kill assay; assay type: functional, organism-based; conditions: dose 8.0 µg/ml

Structure (SMILES)	MIC (Bacillus subtilis [1]) [µg/mL]	MIC (Enterococcus faecalis [2]) [µg/mL]	MIC (Staphylococcus aureus [3]) [µg/mL]	MIC [4] [µg/mL]	MIC (Staphylococcus aureus [5]) [µg/mL]	Activity (Staphylococcus aureus [10]) [log10CFU/ml]	MIC (Staphylococcus aureus [16]) [µg/mL]	also measured
O=C(N[C@H](CO)[C@H](O)c1ccc([N+](=O)[O-])cc1)C(Cl)Cl [CHLORAMPHENICOL]	8 (≈ 24.8 µM)	8 (≈ 24.8 µM)	16 (≈ 49.5 µM)	8 (≈ 24.8 µM)				
CC(C)=CCc1c(-c2ccc3c(c2O)C=CC(C)(C)O3)oc2cc(O)cc(O)c2c1=O	1 (≈ 2.38 µM)	1 (≈ 2.38 µM)	1 (≈ 2.38 µM)	1 (≈ 2.38 µM)	4 (≈ 9.51 µM)	2	4 (≈ 9.51 µM)	Activity (Cell membrane [6]): Active; Activity (Cell membrane [7]): Active; Activity (Cell membrane [8]): Active; Activity (Cell membrane [9]): Active; Ratio (Enterococcus faecalis [11]): 8; Activity (Cell membrane [12]): Active; Ratio [13]: 8; Activity (Staphylococcus aureus [14]): Active; Ratio (Staphylococcus aureus [15]): 8; Activity (Cell membrane [17]): Active; Activity (Cell membrane [18]): Active; Ratio (Bacillus subtilis [19]): 8; Activity (Staphylococcus aureus [20]): Dose-Dependent Effect; Activity (Staphylococcus aureus [21]): inactive
CC1(C)S[C@@H]2[C@H](NC(=O)[C@H](N)c3ccccc3)C(=O)N2[C@H]1C(=O)O [AMPICILLIN]	8 (≈ 22.9 µM)	0.5 (≈ 1.43 µM)	0.5 (≈ 1.43 µM)	16 (≈ 45.8 µM)		5		Activity (Staphylococcus aureus [22]): inactive
CC(C)=CCc1c(-c2ccc(O)c3c2OC(C)(C)C=C3)oc2cc(O)cc(O)c2c1=O [KUWANON A]	4 (≈ 9.51 µM)	8 (≈ 19 µM)	4 (≈ 9.51 µM)	2 (≈ 4.76 µM)	8 (≈ 19 µM)		8 (≈ 19 µM)	
